Results as given in ChEMBL document CHEMBL1201862, “PubChem BioAssay data set” (2004).
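Results reflect a 48-hour exposure of cells in 96-well plates to compound at five concentrations. Here, GI50 denotes the concentration required for 50% inhibition of growth.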 Active and inactive are the calls of the source. Rule as the data show it: active = GI50 up to about 1.1 µM and inactive = higher.

Key:
Assay in all cases: NCI anticancer screen, dose series, 48 h
Malme-3M = tested on: Malme-3M
IGROV-1 = tested on: IGROV-1
OVCAR-8 = tested on: OVCAR-8
OVCAR-4 = tested on: OVCAR-4
UO-31 = tested on: UO-31
PC-3 = tested on: PC-3
HOP-92 = tested on: HOP-92
DU-145 = tested on: DU-145
786-0 = tested on: 786-0
BT-549 = tested on: BT-549
SF-539 = tested on: SF-539
COLO 205 = tested on: COLO 205
NCI/ADR-RES = tested on: NCI/ADR-RES
A549 = tested on: A549
HT-29 = tested on: HT-29
EKVX = tested on: EKVX
SK-OV-3 = tested on: SK-OV-3
NCI-H226 = tested on: NCI-H226
SF-268 = tested on: SF-268
OVCAR-3 = tested on: OVCAR-3
NCI-H23 = tested on: NCI-H23
HCC 2998 = tested on: HCC 2998
RXF 393 = tested on: RXF 393
A498 = tested on: A498
UACC-257 = tested on: UACC-257
KM12 = tested on: KM12
SF-295 = tested on: SF-295
RPMI-8226 = tested on: RPMI-8226
CCRF-CEM = tested on: CCRF-CEM
K562 = tested on: K562
SNB-75 = tested on: SNB-75
MDA-MB-231 = tested on: MDA-MB-231
SK-MEL-2 = tested on: SK-MEL-2
OVCAR-5 = tested on: OVCAR-5
SNB-19 = tested on: SNB-19
SW-620 = tested on: SW-620
UACC-62 = tested on: UACC-62
MDA-MB-435 = tested on: MDA-MB-435
T47D = tested on: T47D
SN12C = tested on: SN12C
CAKI-1 = tested on: CAKI-1
SK-MEL-28 = tested on: SK-MEL-28
HCT-116 = tested on: HCT-116
Hs-578T = tested on: Hs-578T
SK-MEL-5 = tested on: SK-MEL-5
HOP-62 = tested on: HOP-62
TK-10 = tested on: TK-10
ACHN = tested on: ACHN
M14 = tested on: M14
U-251 = tested on: U-251
HL-60 = tested on: HL-60
MDA-N = tested on: MDA-N
NCI-H460 = tested on: NCI-H460
SR = tested on: SR
HCT-15 = tested on: HCT-15
LOX IMVI = tested on: LOX IMVI
MOLT-4 = tested on: MOLT-4
MCF7 = tested on: MCF7
NCI-H522 = tested on: NCI-H522

Structure (SMILES): CCOC(=O)c1ccc(Nc2cnc3ccc(C(F)(F)F)cc3n2)cc1
- GI50 (Malme-3M): 21.4 µM (inactive)
- GI50 (IGROV-1): 15 µM (inactive)
- GI50 (OVCAR-8): 12.8 µM (inactive)
- GI50 (OVCAR-4): 11.6 µM (inactive)
- GI50 (UO-31): 20.1 µM (inactive)
- GI50 (PC-3): 19.2 µM (inactive)
- GI50 (HOP-92): 6.18 µM (inactive)
- GI50 (DU-145): 18.2 µM (inactive)
- GI50 (786-0): 13.9 µM (inactive)
- GI50 (BT-549): 15.8 µM (inactive)
- GI50 (SF-539): 28.1 µM (inactive)
- GI50 (COLO 205): 15.3 µM (inactive)
- GI50 (NCI/ADR-RES): 12.8 µM (inactive)
- GI50 (A549): 14.5 µM (inactive)
- GI50 (HT-29): 11.9 µM (inactive)
- GI50 (EKVX): 24.6 µM (inactive)
- GI50 (SK-OV-3): 35.9 µM (inactive)
- GI50 (NCI-H226): 16.4 µM (inactive)
- GI50 (SF-268): 12.6 µM (inactive)
- GI50 (OVCAR-3): 19.5 µM (inactive)
- GI50 (NCI-H23): 15 µM (inactive)
- GI50 (HCC 2998): 12.9 µM (inactive)
- GI50 (RXF 393): 8.18 µM (inactive)
- GI50 (A498): 16.6 µM (inactive)
- GI50 (UACC-257): 18.4 µM (inactive)
- GI50 (KM12): 13.1 µM (inactive)
- GI50 (SF-295): 20.7 µM (inactive)
- GI50 (RPMI-8226): 27.2 µM (inactive)
- GI50 (CCRF-CEM): 12.1 µM (inactive)
- GI50 (K562): 19 µM (inactive)
- GI50 (SNB-75): 17.9 µM (inactive)
- GI50 (MDA-MB-231): 23.4 µM (inactive)
- GI50 (SK-MEL-2): 15.1 µM (inactive)
- GI50 (OVCAR-5): 24.9 µM (inactive)
- GI50 (SNB-19): 28.1 µM (inactive)
- GI50 (SW-620): 15.2 µM (inactive)
- GI50 (UACC-62): 13.6 µM (inactive)
- GI50 (MDA-MB-435): 21.5 µM (inactive)
- GI50 (T47D): 18.7 µM (inactive)
- GI50 (SN12C): 13.9 µM (inactive)
- GI50 (CAKI-1): 16.9 µM (inactive)
- GI50 (SK-MEL-28): 15.8 µM (inactive)
- GI50 (HCT-116): 14.8 µM (inactive)
- GI50 (Hs-578T): 17.4 µM (inactive)
- GI50 (SK-MEL-5): 15.5 µM (inactive)
- GI50 (HOP-62): 20.6 µM (inactive)
- GI50 (TK-10): 12.3 µM (inactive)
- GI50 (ACHN): 15.2 µM (inactive)
- GI50 (M14): 22.7 µM (inactive)
- GI50 (U-251): 16.8 µM (inactive)
- GI50 (HL-60): 15.9 µM (inactive)
- GI50 (MDA-N): 17.9 µM (inactive)
- GI50 (NCI-H460): 14.2 µM (inactive)
- GI50 (SR): 10.3 µM (inactive)
- GI50 (HCT-15): 14.8 µM
- GI50 (LOX IMVI): 15.8 µM (inactive)
- GI50 (MOLT-4): 3.63 µM (inactive)
- GI50 (MCF7): 19.1 µM (inactive)

Structure (SMILES): Cc1ccc(CSC(=N)Nc2ccccc2)cc1C
- GI50 (Malme-3M): 17.1 µM (inactive)
- GI50 (IGROV-1): 23.2 µM (inactive)
- GI50 (OVCAR-8): 19 µM (inactive)
- GI50 (OVCAR-4): 16.1 µM (inactive)
- GI50 (PC-3): 22.5 µM (inactive)
- GI50 (HOP-92): 16 µM (inactive)
- GI50 (DU-145): 20.7 µM (inactive)
- GI50 (786-0): 19.3 µM (inactive)
- GI50 (BT-549): 22.3 µM (inactive)
- GI50 (SF-539): 22.9 µM (inactive)
- GI50 (COLO 205): 16.3 µM (inactive)
- GI50 (NCI/ADR-RES): 20.4 µM (inactive)
- GI50 (A549): 28.3 µM (inactive)
- GI50 (HT-29): 19.1 µM (inactive)
- GI50 (EKVX): 26.4 µM (inactive)
- GI50 (SK-OV-3): 24.8 µM (inactive)
- GI50 (NCI-H226): 20.9 µM (inactive)
- GI50 (SF-268): 17 µM (inactive)
- GI50 (OVCAR-3): 19.3 µM (inactive)
- GI50 (NCI-H23): 22.9 µM (inactive)
- GI50 (RXF 393): 15.7 µM (inactive)
- GI50 (A498): 16.6 µM (inactive)
- GI50 (UACC-257): 17.4 µM (inactive)
- GI50 (KM12): 19.5 µM (inactive)
- GI50 (NCI-H522): 15.8 µM (inactive)
- GI50 (SF-295): 25 µM (inactive)
- GI50 (RPMI-8226): 22.5 µM (inactive)
- GI50 (CCRF-CEM): 20.2 µM (inactive)
- GI50 (K562): 21.2 µM (inactive)
- GI50 (SNB-75): 25.8 µM (inactive)
- GI50 (MDA-MB-231): 16.2 µM (inactive)
- GI50 (SK-MEL-2): 16.7 µM (inactive)
- GI50 (OVCAR-5): 20.2 µM (inactive)
- GI50 (SNB-19): 23.7 µM (inactive)
- GI50 (SW-620): 38.3 µM (inactive)
- GI50 (UACC-62): 13.1 µM (inactive)
- GI50 (MDA-MB-435): 15.2 µM (inactive)
- GI50 (T47D): 17.2 µM (inactive)
- GI50 (SN12C): 18.9 µM (inactive)
- GI50 (CAKI-1): 19.9 µM (inactive)
- GI50 (SK-MEL-28): 24.7 µM (inactive)
- GI50 (HCT-116): 16.6 µM (inactive)
- GI50 (Hs-578T): 23.2 µM (inactive)
- GI50 (SK-MEL-5): 16.1 µM (inactive)
- GI50 (HOP-62): 23.7 µM (inactive)
- GI50 (TK-10): 28.5 µM (inactive)
- GI50 (ACHN): 33.3 µM (inactive)
- GI50 (M14): 19.1 µM (inactive)
- GI50 (U-251): 16.1 µM (inactive)
- GI50 (HL-60): 30.3 µM (inactive)
- GI50 (MDA-N): 18.9 µM (inactive)
- GI50 (NCI-H460): 18.6 µM (inactive)
- GI50 (SR): 19.5 µM (inactive)
- GI50 (HCT-15): 23.5 µM
- GI50 (LOX IMVI): 18.9 µM (inactive)
- GI50 (MOLT-4): 24.2 µM (inactive)
- GI50 (MCF7): 18.7 µM (inactive)

Structure (SMILES): CCCCOP(=O)(OCCCC)/C(C#N)=C/c1ccc(C)o1
- GI50 (Malme-3M): 29.6 µM (inactive)
- GI50 (IGROV-1): > 100 µM (inactive)
- GI50 (OVCAR-8): 53.6 µM (inactive)
- GI50 (OVCAR-4): 46.8 µM (inactive)
- GI50 (PC-3): 23.9 µM (inactive)
- GI50 (HOP-92): 29.6 µM (inactive)
- GI50 (DU-145): > 100 µM (inactive)
- GI50 (786-0): 37.1 µM (inactive)
- GI50 (BT-549): 19.1 µM (inactive)
- GI50 (SF-539): 61.1 µM (inactive)
- GI50 (COLO 205): 31.9 µM (inactive)
- GI50 (NCI/ADR-RES): 15.5 µM (inactive)
- GI50 (A549): 47.2 µM (inactive)
- GI50 (HT-29): 45.6 µM (inactive)
- GI50 (EKVX): 40.6 µM (inactive)
- GI50 (SK-OV-3): 81.5 µM (inactive)
- GI50 (NCI-H226): 28 µM (inactive)
- GI50 (SF-268): 63.4 µM (inactive)
- GI50 (OVCAR-3): 14.5 µM (inactive)
- GI50 (NCI-H23): 30.4 µM (inactive)
- GI50 (HCC 2998): > 100 µM (inactive)
- GI50 (RXF 393): 26.7 µM (inactive)
- GI50 (A498): 56 µM (inactive)
- GI50 (UACC-257): 27.4 µM (inactive)
- GI50 (KM12): 42.4 µM (inactive)
- GI50 (NCI-H522): 58.9 µM (inactive)
- GI50 (SF-295): 43.7 µM (inactive)
- GI50 (RPMI-8226): 54.8 µM (inactive)
- GI50 (K562): 31.2 µM (inactive)
- GI50 (SNB-75): 35.3 µM (inactive)
- GI50 (MDA-MB-231): > 100 µM (inactive)
- GI50 (SK-MEL-2): 31 µM (inactive)
- GI50 (OVCAR-5): 86.3 µM (inactive)
- GI50 (SNB-19): > 100 µM (inactive)
- GI50 (SW-620): 95.9 µM (inactive)
- GI50 (UACC-62): 53.7 µM (inactive)
- GI50 (MDA-MB-435): 32.6 µM (inactive)
- GI50 (T47D): 51.5 µM (inactive)
- GI50 (SN12C): 56.1 µM (inactive)
- GI50 (CAKI-1): 60.5 µM (inactive)
- GI50 (SK-MEL-28): 60.8 µM (inactive)
- GI50 (HCT-116): 36.9 µM (inactive)
- GI50 (Hs-578T): 57.4 µM (inactive)
- GI50 (SK-MEL-5): 33.7 µM (inactive)
- GI50 (HOP-62): > 100 µM (inactive)
- GI50 (TK-10): > 100 µM (inactive)
- GI50 (ACHN): 42.2 µM (inactive)
- GI50 (M14): 28.2 µM (inactive)
- GI50 (U-251): 93.3 µM (inactive)
- GI50 (MDA-N): 36.9 µM (inactive)
- GI50 (NCI-H460): 61.5 µM (inactive)
- GI50 (SR): 51.6 µM (inactive)
- GI50 (HCT-15): 38.7 µM
- GI50 (LOX IMVI): 59 µM (inactive)
- GI50 (MOLT-4): 63.4 µM (inactive)
- GI50 (MCF7): 22.6 µM (inactive)
